By IC50 is commonly meant the concentration that gives 50% inhibition.

Consider 25 compounds from patent publication US11524938B2, “Aromatic sulfonamide derivatives” (Bayer Pharma Aktiengesellschaft, priority 2016, dated 2022).

The experiment has as its target T1, human P2X4 (Homo sapiens, UniProt Q99571).
T1 sequence (Q99571 1-388): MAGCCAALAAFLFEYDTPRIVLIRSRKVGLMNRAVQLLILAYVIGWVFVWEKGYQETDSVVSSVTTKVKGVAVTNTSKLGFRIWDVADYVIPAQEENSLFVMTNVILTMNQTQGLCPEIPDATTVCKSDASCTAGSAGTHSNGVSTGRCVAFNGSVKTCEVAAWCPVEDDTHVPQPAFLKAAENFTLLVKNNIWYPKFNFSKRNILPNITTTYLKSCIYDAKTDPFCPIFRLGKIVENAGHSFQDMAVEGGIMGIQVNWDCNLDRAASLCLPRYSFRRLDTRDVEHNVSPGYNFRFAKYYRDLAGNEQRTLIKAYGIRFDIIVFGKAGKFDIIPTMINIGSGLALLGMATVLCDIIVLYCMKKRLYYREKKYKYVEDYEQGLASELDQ
Briefly: Human P2X4 HEK Cell FLIPR Assay. It counts as cell-based. The following applies: agonist Bz-ATP at EC80; for Emax: HEK293, HEK293 cells, read-out: Human P2X4 HEK Cells (FLIPR Assay) avg Efficacy [%]; for Emax / Human P2X4 HEK Cells (FLIPR Assay) avg Efficacy [%]: percentage of maximal inhibition; for IC50 / Human P2X4 HEK Cells (FLIPR Assay) avg Efficacy [%]: HEK293 cells; for IC50: individual values listed where some fall outside detection range. Here is the method: HEK293 cells stably expressing human P2X4 were plated in poly-D-lysine-coated 384-well plates at a seeding density of 30000 cells/well and incubated overnight. P2X4 function was assessed by measuring intracellular calcium changes using the calcium-chelating dye Fluo8-AM (Molecular Devices) on a fluorescent imaging plate reader (FLEX/FLIPR station; Molecular Devices). On the day of the assay, the medium was removed and the cells were incubated for 30 min at 37° C. and 5% CO2 in 30 μL of dye buffer (Hank's balanced salt solution, 10 mM HEPES, 1.8 mM CaCl2, 1 mM MgCl2, 2 mM probenecid, 5 mM D-glucose monohydrate, 5 μM Fluo8-AM, pH=7.4). Compounds diluted in probenecid buffer (Hank's balanced salt solution, 10 mM HEPES, 1.8 mM CaCl2, 1 mM MgCl2, 2 mM probenecid, 5 mM D-glucose monohydrate, pH=7.4) were added in a volume of 10 μL and allowed to incubate for 30 min at room temperature. The final assay DMSO concentration was 0.5%. The agonist, Bz-ATP (Tocris), was added in a volume of 10 μL at a concentration representing the EC80 value. The EC80 value of Bz-ATP was determined each assay day prior to compound profiling. The fluorescence was measured for an interval of 120 sec at 2 sec intervals. The excitation and emission wavelengths used to monitor fluorescence were 470-495 nm and 515-575 nm, respectively. The data was analyzed based on the increase in peak relative fluorescence units (RFU) compared to the basal fluorescence and the data was normalized to the agonist control. The compounds were tested in triplicates per plate and mean values were plotted in Excel XLFit to determine IC50 values, percentage of maximal inhibition and the Hill coefficients.

Consider `CC(C(=O)Nc1cnn(-c2ccc(NC(=O)Cc3ccccc3Cl)cc2S(N)(=O)=O)c1)C(F)(F)F` (racemic) [Example 508, N-[1-(4-{[(2-Chlorophenyl)acetyl]amino}-2-sulfamoylphenyl)-1H-pyrazol-4-yl]-3,3,3-trifluoro-2-methylpropanamide], for which the Emax is 63% and the IC50 amounted to 0.172 µM. With `CC(C(=O)Nc1cnn(-c2ccc(NC(=O)Cc3ccccc3Cl)cc2S(N)(=O)=O)c1)C(F)(F)F` (single isomer, unassigned) [Example 509, N-[1-(4-{[(2-Chlorophenyl)acetyl]amino}-2-sulfamoylphenyl)-1H-pyrazol-4-yl]-3,3,3-trifluoro-2-methylpropanamide], the Emax is 71% and the IC50 was 0.326 µM.

With `CC(C(=O)Nc1cnn(-c2ccc(NC(=O)Cc3ccccc3Cl)cc2S(N)(=O)=O)c1)C(F)(F)F` (single isomer, unassigned) [Example 510, N-[1-(4-{[(2-Chlorophenyl)acetyl]amino}-2-sulfamoylphenyl)-1H-pyrazol-4-yl]-3,3,3-trifluoro-2-methylpropanamide], the IC50 was 0.439 µM and the “Human P2X4 HEK Cells (FLIPR Assay) avg Efficacy [%]” value was found to be 73%. Turning to `C[C@H]1CC[C@H](C)N1c1cnn(-c2ccc(NC(=O)Cc3ccccc3Cl)cc2S(N)(=O)=O)c1` (single isomer, unassigned) [Example 512, 2-(2-Chlorophenyl)-N-(4-{4-[(trans)-2,5-dimethylpyrrolidin-1-yl]-1H-pyrazol-1-yl}-3-sulfamoylphenyl)acetamide], the Emax came out at 76% and the IC50 turned out to be 4.25 µM. For `C[C@H]1CC[C@H](C)N1c1cnn(-c2ccc(NC(=O)Cc3ccccc3Cl)cc2S(N)(=O)=O)c1` (single isomer, unassigned) [Example 513, 2-(2-Chlorophenyl)-N-(4-{4-[(trans)-2,5-dimethylpyrrolidin-1-yl]-1H-pyrazol-1-yl}-3-sulfamoylphenyl)acetamide], the IC50 came to 0.893 µM and the “Human P2X4 HEK Cells (FLIPR Assay) avg Efficacy [%]” value amounted to 94%.

As for `NS(=O)(=O)c1cc(NC(=O)Cc2ccccc2Cl)ccc1-n1ccc(Cl)cc1=O` [Example 2, N-[4-(4-Chloro-2-oxopyridin-1(2H)-yl)-3-sulfamoylphenyl]-2-(2-chlorophenyl)-acetamide], the Emax turned out to be 50% and the half-maximal inhibitory concentration (IC50) came out at 19.4 µM. Consider `NS(=O)(=O)c1cc(NC(=O)Cc2ccccc2Cl)ccc1-n1cc(Cl)cc(Cl)c1=O` [Example 3, 2-(2-Chlorophenyl)-N-[4-(3,5-dichloro-2-oxopyridin-1(2H)-yl)-3-sulfamoylphenyl]-acetamide], for which the Emax was 76% and the IC50 turned out to be 0.942 µM. As to `NS(=O)(=O)c1cc(NC(=O)Cc2ccccc2Cl)ccc1-n1cccc(Cl)c1=O` [Example 4, N-[4-(3-Chloro-2-oxopyridin-1(2H)-yl)-3-sulfamoylphenyl]-2-(2-chlorophenyl)-acetamide], the Emax turned out to be 83% and the IC50 was 0.259 µM. For the compound `Cc1ncn(-c2ccc(NC(=O)Cc3ccccc3Cl)cc2S(N)(=O)=O)n1` [Example 5, 2-(2-Chlorophenyl)-N-[4-(3-methyl-1H-1,2,4-triazol-1-yl)-3-sulfamoylphenyl]-acetamide], the Emax stood at 91% and the IC50 is 0.249 µM.

Turning to `Cc1ncnn1-c1ccc(NC(=O)Cc2ccccc2Cl)cc1S(N)(=O)=O` [Example 6, 2-(2-Chlorophenyl)-N-[4-(5-methyl-1H-1,2,4-triazol-1-yl)-3-sulfamoylphenyl]-acetamide], the Emax came to 84% and the IC50 was 1.07 µM.

Consider `NS(=O)(=O)c1cc(NC(=O)Cc2ccccc2Cl)ccc1-n1cnc(C(F)(F)F)n1` [Example 7, 2-(2-Chlorophenyl)-N-{3-sulfamoyl-4-[3-(trifluoromethyl)-1H-1,2,4-triazol-1-yl]-phenyl}acetamide], for which the Emax was 73% and the IC50 worked out at 3.08 µM.

As for `Cc1nc(C(F)(F)F)nn1-c1ccc(NC(=O)Cc2ccccc2Cl)cc1S(N)(=O)=O` [Example 8, 2-(2-Chlorophenyl)-N-{4-[5-methyl-3-(trifluoromethyl)-1H-1,2,4-triazol-1-yl]-3-sulfamoylphenyl}acetamide], the Emax was determined as 79% and the IC50 turned out to be 2.56 µM. The like results for `NS(=O)(=O)c1cc(NC(=O)Cc2ccccc2Cl)ccc1-n1ccnc1` [Example 9, 2-(2-Chlorophenyl)-N-[4-(1H-imidazol-1-yl)-3-sulfamoylphenyl]acetamide] were, in that order, 83% and 0.007 µM.

Regarding `NS(=O)(=O)c1cc(NC(=O)Cc2ccccc2Cl)ccc1-n1cnc(C(F)(F)F)c1` [Example 10, 2-(2-Chlorophenyl)-N-{3-sulfamoyl-4-[4-(trifluoromethyl)-1H-imidazol-1-yl]phenyl}-acetamide], the Emax came to 81% and the IC50 is 0.007 µM.

In the case of `NS(=O)(=O)c1cc(NC(=O)Cc2ccccc2Cl)ccc1-n1ccc(C(F)(F)F)n1` [Example 11, 2-(2-Chlorophenyl)-N-{3-sulfamoyl-4-[3-(trifluoromethyl)-1H-pyrazol-1-yl]phenyl}-acetamide], the Emax was found to be 31% and the half-inhibitory concentration (IC50) is > 25 µM. The like results for `NS(=O)(=O)c1cc(NC(=O)Cc2ccccc2Cl)ccc1-n1ccc(C(F)F)n1` [Example 12, 2-(2-Chlorophenyl)-N-{4-[3-(difluoromethyl)-1H-pyrazol-1-yl]-3-sulfamoyl-phenyl}acetamide] were, in that order, 34% and > 25 µM. The matching figures for `NS(=O)(=O)c1cc(NC(=O)Cc2ccccc2Cl)ccc1-n1nc(C(F)F)cc1C1CC1` [Example 13, 2-(2-Chlorophenyl)-N-{4-[5-cyclopropyl-3-(difluoromethyl)-1H-pyrazol-1-yl]-3-sulfamoylphenyl}acetamide]: 100% and 0.514 µM.

Regarding `Cc1cn(-c2ccc(NC(=O)Cc3ccccc3Cl)cc2S(N)(=O)=O)nc1C(F)(F)F` [Example 14, 2-(2-Chlorophenyl)-N-{4-[4-methyl-3-(trifluoromethyl)-1H-pyrazol-1-yl]-3-sulfamoylphenyl}acetamide], the Emax came to 26% and the IC50 was > 25 µM. Take `Cc1cc(C(F)(F)F)nn1-c1ccc(NC(=O)Cc2ccccc2Cl)cc1S(N)(=O)=O` [Example 15, 2-(2-Chlorophenyl)-N-{4-[5-methyl-3-(trifluoromethyl)-1H-pyrazol-1-yl]-3-sulfamoylphenyl}acetamide]: the Emax amounted to 99% and the IC50 worked out at 0.379 µM. Consider `NS(=O)(=O)c1cc(NC(=O)Cc2ccccc2Cl)ccc1-n1cncn1` [Example 16, 2-(2-Chlorophenyl)-N-[3-sulfamoyl-4-(1H-1,2,4-triazol-1-yl)phenyl]acetamide], for which the Emax was 89% and the IC50 was determined as 0.262 µM. For `NS(=O)(=O)c1cc(NC(=O)Cc2ccccc2Cl)ccc1-n1cnc(C(F)F)n1` [Example 17, 2-(2-Chlorophenyl)-N-{4-[3-(difluoromethyl)-1H-1,2,4-triazol-1-yl]-3-sulfamoyl-phenyl}acetamide], the Emax amounted to 89% and the IC50 is 0.288 µM. The like results for `NS(=O)(=O)c1cc(NC(=O)Cc2ccccc2F)ccc1-n1cnc(C(F)F)n1` [Example 18, N-{4-[3-(Difluoromethyl)-1H-1,2,4-triazol-1-yl]-3-sulfamoylphenyl}-2-(2-fluoro-phenyl)acetamide] were, in that order, 66% and 4.7 µM. Turning to `NS(=O)(=O)c1cc(NC(=O)Cc2ccccc2F)ccc1-n1cc(C(F)(F)F)cn1` [Example 20, 2-(2-Fluorophenyl)-N-{3-sulfamoyl-4-[4-(trifluoromethyl)-1H-pyrazol-1-yl]phenyl}-acetamide], the Emax was determined as 67%.

As for `NS(=O)(=O)c1cc(NC(=O)Cc2ccccc2C(F)F)ccc1-n1cc(C(F)(F)F)cn1` [Example 21, 2-[2-(Difluoromethyl)phenyl]-N-{3-sulfamoyl-4-[4-(trifluoromethyl)-1H-pyrazol-1-yl]phenyl}acetamide], the Emax is 67% and the IC50 is 0.17 µM. Consider `NS(=O)(=O)c1cc(NC(=O)Cc2ccccc2C(F)(F)F)ccc1-n1cc(C(F)(F)F)cn1` [Example 22, N-{3-Sulfamoyl-4-[4-(trifluoromethyl)-1H-pyrazol-1-yl]phenyl}-2-[2-(trifluoromethyl)-phenyl]acetamide], for which the Emax is 76% and the IC50 was found to be 0.224 µM.
